The source of these data is patent US20230131535A1, “ARYLMETHYLENE AROMATIC COMPOUNDS AS Kv1.3 POTASSIUM SHAKER CHANNEL BLOCKERS” (D. E. Shaw Research, LLC, priority 2019, published 2023).

Molecules are shown by their SMILES. Like-named read-outs stand apart in the source and are kept apart here.

Test [1] deals with T1, Kv1.3 potassium channel (Homo sapiens, UniProt P22001).
T1 construct: expressed in transfected cells
The test is described as follows: Kv1.3 potassium channel blocker activity, automated whole-cell patch clamp (Patchliner). Particulars: CHO-K1 cells stably expressing Kv1.3, whole cell current, pulses -90 mV to +40 mV, read-out: Kv1.3_IC50. Format: cell-based. How it is done: Example 67. Evaluation of Kv1.3 Potassium Channel Blocker Activities
The assay described below is used to evaluate the disclosed compound's activities as Kv1.3 potassium channel blockers.
CHO-K1 cells stably expressing Kv1.3 were grown in DMEM containing 10% heat-inactivated FBS, 1 mM Sodium Pyruvate, 2 mM L-Glutamine and G418 (500 μg/ml). Cells were grown in culture flasks at 37° C. in a 5% CO2-humidified incubator.
(§1) The cells were bathed in an extracellular solution containing 140 mM NaCl, 4 mM KCl, 2 mM CaCl2), 1 mM MgCl2, 5 mM Glucose, 10 mM HEPES; pH adjusted to 7.4 with NaOH; 295-305 mOsm. The internal solution contained 50 mM KCl, 10 mM NaCl, 60 mM KF, 20 mM EGTA, 10 mM HEPES; pH adjusted to 7.2 with KOH; 285 mOsm. All compounds were dissolved in DMSO at 30 mM. Compound stock solutions were freshly diluted with external solution to concentrations of 30 nM, 100 nM, 300 nM, 1 μM, 3 μM, 10 μM, 30 μM and 100 μM. The highest content of DMSO (0.3%) was present in 100 μM.
The currents were evoked by applying 100 ms depolarizing pulses from −90 mV (holding potential) to +40 mV were applied with 0.1 Hz frequency. Control (compound-free) and compound pulse trains for each compound concentration applied contained 20 pulses. 10 second breaks were used between pulse trains (see Table 4 below).
Whole cell current recordings and compound application were enabled by means of an automated patch clamp platform Patchliner (Nanion Technologies GmbH). EPC 10 patch clamp amplifier (HIEKA Elektronik Dr. Schulze GmbH) along with Patchmaster software (HIEKA Elektronik Dr. Schulze GmbH) was used for data acquisition. Data were sampled at 10 kHz without filtering. Passive leak currents were subtracted online using a P/4 procedure (HEKA Elektronik Dr. Schulze GmbH). Increasing compound concentrations were applied consecutively to the same cell without washouts in between. Total compound incubation time before the next pulse train was not longer than 10 seconds. Peak current inhibition was observed during compound equilibration.
(§2) AUC and peak values were obtained with Patchmaster (HEKA Elektronik Dr. Schulze GmbH). To determine IC50, the last single pulse in the pulse train corresponding to a given compound concentration was used. Obtained AUC and peak values in the presence of compound were normalized to control values in the absence of compound. Using Origin (OridinLab), IC50 was derived from data fit to Hill equation: Icompound/Icontrol=(100−A)/(1+([compound]/IC50)nH)+A, where IC50 value is the concentration at which current inhibition is half-maximal, [compound] is the applied compound concentration, A is the fraction of current that is not blocked and nH is the Hill coefficient.

In test [2] the target is T2, hERG channel (Homo sapiens, UniProt Q12809).
T2 construct: expressed in transfected cells
The test is described as follows: hERG electrophysiology, automated whole-cell patch clamp (Patchliner). Format: cell-based. The note with it: CHO-K1 cells stably expressing hERG, whole cell current, tail current protocol, read-out: hERG_IC50. How it is done:
Example 68. Evaluation of hERG Activities
This assay is used to evaluate the disclosed compounds' inhibition activities against the hERG channel.
CHO-K1 cells stably expressing hERG were grown in Ham's F-12 Medium with Glutamine containing 10% heat-inactivated FBS, 1% Penicillin/Streptomycin, Hygromycin (100 μg/ml) and G418 (100 μg/ml). Cells were grown in culture flasks at 37° C. in a 5% CO2-humidified incubator.
as §1
The voltage protocol (see Table 5) was designed to simulate voltage changes during a cardiac action potential with a 300 ms depolarization to +20 mV (analogous to the plateau phase of the cardiac action potential), a repolarization for 300 ms to −50 mV (inducing a tail current) and a final step to the holding potential of −80 mV. The pulse frequency was 0.3 Hz. Control (compound-free) and compound pulse trains for each compound concentration applied contained 70 pulses.
Whole cell current recordings and compound application were enabled by means of an automated patch clamp platform Patchliner (Nanion). EPC 10 patch clamp amplifier (HEKA) along with Patchmaster software (HEKA Elektronik Dr. Schulze GmbH) was used for data acquisition. Data were sampled at 10 kHz without filtering. Increasing compound concentrations were applied consecutively to the same cell without washouts in between.
as §2, with “PEAK” for “peak”, “IC50” for “IC50,”, “IC50” for “IC50 value”

T1 sequence (P22001 whole entry): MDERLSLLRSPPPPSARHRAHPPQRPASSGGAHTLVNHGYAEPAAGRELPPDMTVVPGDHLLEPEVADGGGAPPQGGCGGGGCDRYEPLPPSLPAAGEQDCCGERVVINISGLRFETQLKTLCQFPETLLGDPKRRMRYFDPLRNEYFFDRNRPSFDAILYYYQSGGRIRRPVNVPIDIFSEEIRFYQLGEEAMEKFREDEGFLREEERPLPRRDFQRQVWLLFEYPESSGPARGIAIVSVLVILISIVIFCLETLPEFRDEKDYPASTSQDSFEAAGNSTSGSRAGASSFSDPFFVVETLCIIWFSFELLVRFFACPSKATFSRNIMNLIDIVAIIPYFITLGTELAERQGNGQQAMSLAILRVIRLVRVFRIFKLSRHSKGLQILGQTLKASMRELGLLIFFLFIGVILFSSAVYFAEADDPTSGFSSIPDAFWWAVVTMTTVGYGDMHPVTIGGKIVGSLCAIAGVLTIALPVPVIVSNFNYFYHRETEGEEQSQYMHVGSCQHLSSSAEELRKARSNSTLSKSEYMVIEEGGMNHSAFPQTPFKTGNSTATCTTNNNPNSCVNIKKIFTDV
T2 sequence (Q12809 whole entry): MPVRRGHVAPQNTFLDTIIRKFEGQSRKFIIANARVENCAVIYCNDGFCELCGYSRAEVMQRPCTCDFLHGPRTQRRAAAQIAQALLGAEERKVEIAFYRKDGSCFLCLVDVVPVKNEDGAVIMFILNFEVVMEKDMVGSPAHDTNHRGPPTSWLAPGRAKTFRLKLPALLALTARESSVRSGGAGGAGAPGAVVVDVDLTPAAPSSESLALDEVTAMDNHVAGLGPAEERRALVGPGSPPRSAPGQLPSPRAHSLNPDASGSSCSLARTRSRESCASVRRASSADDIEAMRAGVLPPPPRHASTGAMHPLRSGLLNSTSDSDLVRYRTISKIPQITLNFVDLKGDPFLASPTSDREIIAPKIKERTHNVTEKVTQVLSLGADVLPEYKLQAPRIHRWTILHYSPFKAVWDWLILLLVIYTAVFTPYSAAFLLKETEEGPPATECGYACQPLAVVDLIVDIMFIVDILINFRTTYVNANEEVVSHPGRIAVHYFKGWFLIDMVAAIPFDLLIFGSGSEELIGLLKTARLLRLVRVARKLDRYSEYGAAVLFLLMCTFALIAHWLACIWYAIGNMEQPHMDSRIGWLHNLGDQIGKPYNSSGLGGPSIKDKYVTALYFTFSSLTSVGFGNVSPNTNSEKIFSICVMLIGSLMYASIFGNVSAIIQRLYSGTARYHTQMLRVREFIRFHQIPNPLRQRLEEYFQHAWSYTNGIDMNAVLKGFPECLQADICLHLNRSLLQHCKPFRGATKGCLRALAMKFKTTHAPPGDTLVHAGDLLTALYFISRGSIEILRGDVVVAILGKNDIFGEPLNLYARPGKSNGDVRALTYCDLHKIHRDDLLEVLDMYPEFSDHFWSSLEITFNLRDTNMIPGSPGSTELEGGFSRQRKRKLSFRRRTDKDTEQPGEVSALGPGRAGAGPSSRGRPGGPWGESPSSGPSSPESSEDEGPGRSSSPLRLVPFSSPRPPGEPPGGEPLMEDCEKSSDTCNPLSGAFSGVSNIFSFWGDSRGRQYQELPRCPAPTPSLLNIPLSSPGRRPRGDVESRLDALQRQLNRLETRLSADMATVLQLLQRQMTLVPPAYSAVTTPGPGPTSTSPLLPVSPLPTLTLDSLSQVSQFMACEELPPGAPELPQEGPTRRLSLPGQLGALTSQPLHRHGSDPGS

With `O=C(NC(c1ccncc1)c1c(O)ccc(Cl)c1Cl)C1CNC1` (single isomer, unassigned) [Compound 50, N-[(2,3-dichloro-6-hydroxyphenyl)(pyridin-4-yl)methyl]azetidine-3-carboxamide], the IC50 in test [1] (Table 6) was < 1 µM; in test [2] (Table 6) it was > 30 µM.
`NCc1cc(C(O)c2c(O)ccc(Cl)c2Cl)ccn1` (single isomer, unassigned) [Compound 53, 2-((2-(aminomethyl)pyridin-4-yl)(hydroxy)methyl)-3,4-dichlorophenol]: the IC50 is < 1 µM in test [1] (Table 6) and > 30 µM in test [2] (Table 6).
Consider `O=C(N[C@H](c1ccncc1)c1c(O)ccc(Cl)c1Cl)[C@@H]1CCCN1` (single isomer, unassigned) [Compound 68], for which the IC50 in test [1] (Table 6) was < 1 µM; in test [2] (Table 6) it was < 30 µM.
As for `CC(NC(=O)C1CNC1)c1c(O)ccc(Br)c1Cl` (stereo in doubt) [Compound 91, N-[(1R)-1-3-bromo-2-chloro-6-hydroxyphenyl) ethyl]azetidine-3-carboxamide], the values for the IC50 in test [1] (Table 7) and in test [2] (Table 7) were < 1 µM and > 30 µM, respectively.
For the compound `Oc1cc(Cl)c(Cl)cc1Cc1ccncc1` [Compound 1, 2-[(pyridin-4-yl)methyl]-4,5-dichlorophenol], the results for the IC50 in test [1] (Table 6) and in test [2] (Table 6) were < 10 µM and > 30 µM, respectively.
`Nc1cc(Cc2cc(Cl)c(Cl)cc2O)ccn1` [Compound 2, 2-[(2-aminopyridin-4-yl)methyl]-4,5-dichlorophenol]: the IC50 is < 10 µM in test [1] (Table 6) and < 30 µM in test [2] (Table 6).
For `NC(c1ccncc1)c1cc(Cl)c(Cl)cc1O` (stereo not drawn) [Compound 6, 2-[amino(pyridin-4-yl)methyl]-4,5-dichlorophenol] the same measures were < 10 µM and > 30 µM.
With `Nc1ccc(Cc2cc(Cl)c(Cl)cc2O)cn1` [Compound 8, 2-[(6-aminopyridin-3-yl)methyl]-4,5-dichlorophenol], the IC50 in test [1] (Table 6) is < 10 µM; in test [2] (Table 6) it was < 30 µM.
On to `Cc1cnccc1C(NC(=O)C1CNC1)c1c(O)ccc(Cl)c1Cl` (stereo not drawn) [Compound 9, N-[(2,3-dichloro-6-hydroxyphenyl)(3-methylpyridin-4-yl)methyl]azetidine-3-carboxamide], for which the IC50 in test [1] (Table 6) is < 1 µM; in test [2] (Table 6), > 30 µM.
As to `NC(c1ccncc1)c1c(O)ccc(Cl)c1Cl` (stereo not drawn) [Compound 11, 2-[amino(pyridin-4-yl)methyl]-3,4-dichlorophenol], the IC50 in test [1] (Table 6) was < 10 µM; in test [2] (Table 6), > 30 µM.
As to `NC(c1ccncc1)c1c(O)ccc2ccccc12` (stereo not drawn) [Compound 17, 1-[amino(pyridin-4-yl)methyl]naphthalen-2-ol], the IC50 was < 10 µM in test [1] (Table 6) and < 30 µM in test [2] (Table 6).
For `CC(=O)CC(c1ccncc1)c1c(O)ccc2ccccc12` (stereo not drawn) [Compound 18], the IC50 in test [1] (Table 6) was < 10 µM; in test [2] (Table 6) it was > 30 µM.
`CC(=O)NC(c1ccncc1)c1c(O)ccc(Cl)c1Cl` (stereo not drawn) [Compound 20, N-[(2,3-dichloro-6-hydroxyphenyl)(pyridin-4-yl)methyl]acetamide]: the values for the IC50 in test [1] (Table 6) and in test [2] (Table 6) were < 1 µM and > 30 µM, respectively.
With `NC(c1ccc2c(c1)CNC2)c1cc(Cl)c(Cl)cc1O` (stereo not drawn) [Compound 21, 2-[amino(2,3-dihydro-1H-isoindol-5-yl)methyl]-4,5-dichlorophenol], the IC50 in test [1] (Table 6) is < 1 µM; in test [2] (Table 6) it was < 30 µM.
Take `O=C(NC(c1ccncc1)c1cc(Cl)c(Cl)cc1O)C1CNC1` (stereo not drawn) [Compound 26, N-[(4,5-dichloro-2-hydroxyphenyl)(pyridin-4-yl)methyl]azetidine-3-carboxamide]: the IC50 in test [1] (Table 6) is < 1 µM; in test [2] (Table 6), > 30 µM.
`Oc1cc(Cl)c(Cl)cc1C(O)c1ccncc1` (stereo not drawn) [Compound 27, 4,5-dichloro-2-[hydroxy(pyridin-4-yl)methyl]phenol]: the IC50 is < 10 µM in test [1] (Table 6) and > 30 µM in test [2] (Table 6).
For `NCc1cc(C(O)c2c(O)ccc(Cl)c2Cl)ccn1` (stereo not drawn) [Compound 28, 2-[[2-(aminomethyl)pyridin-4-yl](hydroxy)methyl]-3,4-dichlorophenol], the IC50 in test [1] (Table 6) was < 1 µM; in test [2] (Table 6) it was > 30 µM.
`Oc1ccc(Cl)c(Cl)c1C(O)c1ccncc1` (stereo not drawn) [Compound 29, 3,4-dichloro-2-[hydroxy(pyridin-4-yl)methyl]phenol]: the IC50 in test [1] (Table 6) was < 1 µM; in test [2] (Table 6), > 30 µM.
The like results for `Oc1ccc(Cl)c(Cl)c1C(O)c1cccnc1` (stereo not drawn) [Compound 31, 3,4-dichloro-2-[hydroxy(pyridin-3-yl)methyl]phenol] were, in that order, < 1 µM and > 30 µM.
For `Nc1cc(C(O)c2c(O)ccc(Cl)c2Cl)ccn1` (stereo not drawn) [Compound 36, 2-[(2-aminopyridin-4-yl)(hydroxy)methyl]-3,4-dichlorophenol] the same measures were < 1 µM and > 30 µM.
Turning to `Cc1cnccc1C(O)c1c(O)ccc(Cl)c1Cl` (stereo not drawn) [Compound 39, 3,4-dichloro-2-[hydroxy(3-methylpyridin-4-yl)methyl]phenol], the IC50 was < 1 µM in test [1] (Table 6) and > 30 µM in test [2] (Table 6).
For `Nc1ccc(C(O)c2c(O)ccc(Cl)c2Cl)cn1` (stereo not drawn) [Compound 40, 2-[(6-aminopyridin-3-yl)(hydroxy)methyl]-3,4-dichlorophenol] the same measures were < 1 µM and < 30 µM.
In the case of `O=C(NC(c1ccncc1)c1c(O)ccc(Cl)c1Cl)C1CNC1` (stereo not drawn) [Compound 42, N-[(2,3-dichloro-6-hydroxyphenyl)(pyridin-4-yl)methyl]azetidine-3-carboxamide], the IC50 in test [1] (Table 6) is < 1 µM; in test [2] (Table 6), > 30 µM.
The like results for `NC(=O)c1ccc(C(O)c2c(O)ccc(Cl)c2Cl)cc1` (stereo not drawn) [Compound 64, 4-[(2,3-dichloro-6-hydroxyphenyl)(hydroxy)methyl]benzamide] were, in that order, < 1 µM and > 30 µM.
For the compound `CN1CC(C(=O)NC(c2ccncc2)c2c(O)ccc(Cl)c2Cl)C1` (stereo not drawn) [Compound 73, N-[(2,3-dichloro-6-hydroxyphenyl)(pyridin-4-yl)methyl]-1-methylazetidine-3-carboxamide], the IC50 in test [1] (Table 6) was < 1 µM; in test [2] (Table 6) it was > 30 µM.
For `C[C@H](NC(=O)C1CNC1)c1c(O)ccc(Cl)c1Cl` [Compound 76, N-[(1S)-1-(2,3-dichloro-6-hydroxyphenyl)ethyl]azetidine-3-carboxamide], the IC50 in test [1] (Table 7) was < 1 µM; in test [2] (Table 7) it was > 30 µM.
With `C[C@@H](NC(=O)[C@H]1CCCNC1)c1c(O)ccc(Cl)c1Cl` [Compound 78, (3S)-N-[(1R)-1-(2,3-dichloro-6-hydroxyphenyl)ethyl]piperidine-3-carboxamide], the IC50 in test [1] (Table 7) is < 1 µM; in test [2] (Table 7), > 30 µM.
